US7253192B2, “Phenyl derivatives comprising an acetylene group” (Hoffmann-La Roche Inc., priority 2004, dated 2007)

Tests used:
[1] = target: T1, PPARγ (Mus musculus, UniProt P37238); assay: Radioligand binding assay (SPA), PPARγ receptor binding; settings: GST-PPARγ-LBD fusion protein, scintillation proximity radioligand binding
T1 construct: PPARγ (aa 174 to 476); made in house; host or cells: E. coli BL21 (pLysS)
T1 sequence (P37238 204-505): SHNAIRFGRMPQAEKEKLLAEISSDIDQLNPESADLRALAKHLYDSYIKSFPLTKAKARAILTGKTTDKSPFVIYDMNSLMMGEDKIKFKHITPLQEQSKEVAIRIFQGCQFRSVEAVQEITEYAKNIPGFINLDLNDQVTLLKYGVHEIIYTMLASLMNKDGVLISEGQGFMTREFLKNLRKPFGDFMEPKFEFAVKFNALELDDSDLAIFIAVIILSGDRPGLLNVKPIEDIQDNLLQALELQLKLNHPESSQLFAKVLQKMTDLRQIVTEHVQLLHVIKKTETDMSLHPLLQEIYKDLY
From the text: (§1) Full-length cDNA clones for humans PPARδ and PPARα and mouse PPARγ were obtained by RT-PCR from human adipose and mouse liver cRNA, respectively, cloned into plasmid vectors and verified by DNA sequencing. Bacterial and mammalian expression vectors were constructed to produce glutathione-s-transferase (GST) and Gal4 DNA binding domain proteins fused to the ligand binding domains (LBD) of PPARδ (aa 139 to 442), PPARγ (aa 174 to 476) and PPARα (aa 167 to 469). To accomplish this, the portions of the cloned sequences encoding the LBDs were amplified from the full-length clones by PCR and then subcloned into the plasmid vectors. Final clones were verified by DNA sequence analysis.
(§2) Induction, expression, and purification of GST-LBD fusion proteins were performed in E. coli strain BL21 (pLysS) cells by standard methods (Ref: Current Protocols in Molecular Biology, Wiley Press, edited by Ausubel et al.).
PPARγ receptor binding was assayed in TKE50 (50 mM Tris-HCl, pH 8, 50 mM KCl, 2 mM EDTA, 0.1 mg/ml fatty acid-free BSA and 10 mM DTT). For each 96 well reaction an 140 ng equivalent of GST-PPARγ-LBD fusion protein was bound to 10 μg SPA beads (PharmaciaAmersham) in a final volume of 50 μl by shaking. The resulting slurry was incubated for 1 h at RT and centrifuged for 2 min at 1300 g. The supernatant containing unbound protein was removed and the semidry pellet containing the receptor-coated beads was resolved in 50 ul of TKE. For radioligand binding e.g. 10000 dpm 2(S)-(2-benzoyl-phenylamino)-3-{4-[1,1-ditritio-2-(5-methyl-2-phenyl-oxazol-4-yl)-ethoxy]-phenyl}-propionic acid in 50 μl were added, the reaction incubated at RT for 1 h and scintillation proximity counting performed. All binding assays were performed in 96 well plates and the amount of bound ligand measured on a Packard TopCount using OptiPlates (Packard). Nonspecific binding was determined in the presence of 10^−4 M unlabelled compound. Dose response curves were done in triplicates within a range of concentration from 10^−10 M to 10^−4 M.

[2] = target: T2, PPARα (Homo sapiens, UniProt Q07869); assay: Radioligand binding assay (SPA), PPARα receptor binding; settings: GST-PPARα-LBD fusion protein, scintillation proximity radioligand binding
T2 construct: PPARα (aa 167 to 469); made in house; host or cells: E. coli BL21 (pLysS)
T2 sequence (Q07869 167-468 limits assumed): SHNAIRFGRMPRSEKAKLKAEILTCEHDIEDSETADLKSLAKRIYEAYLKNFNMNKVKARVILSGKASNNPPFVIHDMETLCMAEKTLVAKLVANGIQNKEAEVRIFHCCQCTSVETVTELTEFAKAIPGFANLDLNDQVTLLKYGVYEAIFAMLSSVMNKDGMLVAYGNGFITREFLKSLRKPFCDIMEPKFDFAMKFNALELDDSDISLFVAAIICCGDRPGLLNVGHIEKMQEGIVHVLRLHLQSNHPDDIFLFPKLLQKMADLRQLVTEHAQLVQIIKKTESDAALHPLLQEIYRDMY
From the text: as §1, §2
PPARα receptor binding was assayed in TKE50 (50 mM Tris-HCl, pH 8, 50 mM KCl, 2 mM EDTA, 0.1 mg/ml fatty acid-free BSA and 10 mM DTT). For each 96 well reaction an 140 ng equivalent of GST-PPARα-LBD fusion protein was bound to 10 μg SPA beads (PharmaciaAmersham) in a final volume of 50 μl by shaking. The resulting slurry was incubated for 1 h at RT and centrifuged for 2 min at 1300 g. The supernatant containing unbound protein was removed and the semidry pellet containing the receptor-coated beads was resolved in 50 μl of TKE. For radioligand binding e.g. 10000 dpm of 2(S)-(2-benzoyl-phenylamino)-3-{4-[1,1-ditritio-2-(5-methyl-2-phenyl-oxazol-4-yl)-ethoxy]-phenyl}-propionic acid or 2,3-ditritio-2(S)-methoxy-3-{4-[2-(5-methyl-2-phenyl-oxazol-4-yl)-ethoxy]-benzo [b]thiophen-7-yl}-propionic acid in 50 ul were added, the reaction incubated at RT for 1 h and scintillation proximity counting performed. All binding assays were performed in 96 well plates and the amount of bound ligand measured on a Packard TopCount using OptiPlates (Packard). Nonspecific binding was determined in the presence of 10^−4 M unlabelled compound. […]

[3] = target: T3, PPARδ (Homo sapiens, UniProt Q03181); assay: Radioligand binding assay (SPA), PPARδ receptor binding; settings: GST-PPARδ-LBD fusion protein, scintillation proximity radioligand binding
T3 construct: PPARδ (aa 139 to 442); made in house; host or cells: E. coli BL21 (pLysS)
T3 sequence (Q03181 139-441 limits assumed): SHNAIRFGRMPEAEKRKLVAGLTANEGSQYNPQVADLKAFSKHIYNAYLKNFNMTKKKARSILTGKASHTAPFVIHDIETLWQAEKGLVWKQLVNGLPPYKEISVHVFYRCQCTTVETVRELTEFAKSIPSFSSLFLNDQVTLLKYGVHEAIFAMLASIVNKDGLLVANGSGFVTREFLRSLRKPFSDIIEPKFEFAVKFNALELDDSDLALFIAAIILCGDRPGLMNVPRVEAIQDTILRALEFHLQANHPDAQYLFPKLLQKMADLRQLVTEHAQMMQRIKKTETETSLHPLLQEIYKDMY
From the text: as §1, §2
PPARδ receptor binding was assayed in HNM10 (50 mM Hepes, pH 7.4, 10 mM NaCl, 5 mM MgCl2, 0.15 mg/ml fatty acid-free BSA and 15 mM DTT). For each 96 well reaction a 500 ng equivalent of GST-PPARδ-LBD fusion protein and radioligand, e.g. 20000 dpm {2-methyl-4-[4-methyl-2-(4-trifluoromethyl-phenyl)-thiazol-5-yl-ditritiomethylsulfanyl]-phenoxy}-acetic acid, was bound to 10 μg SPA beads (PharmaciaAmersham) in a final volume of 50 μl by shaking. The resulting slurry was incubated for 1 h at RT and centrifuged for 2 min at 1300 g. The supernatant containing unbound protein was removed and the semidry pellet containing the receptor-coated beads was resuspended in 50 μl of HNM. Radioligand was added and the reaction incubated at RT for 1 h and scintillation proximity counting performed in the presence of test compounds was determined. All binding assays were performed in 96 well plates and the amount of bound ligand was measured on a Packard TopCount using OptiPlates (Packard). Dose response curves were done in triplicates within a range of concentration from 10^−10 M to 10^−4 M.

Row | Structure (SMILES) | melting point | IC50 [1] [µM] | IC50 [2] [µM] | IC50 [3] [µM]
1 | Cc1cc(OCCCC#Cc2ccc(C(F)(F)F)cc2)ccc1OC(C)(C)C(=O)O [Example 14, 2-Methyl-2-{2-methyl-4-[5-(4-trifluoromethyl-phenyl)-pent-4-ynyloxy]-phenoxy}-propionic acid] | 114 to 115 °C (dec.) |  |  | 
2 | Cc1cc(SCCCC#Cc2ccc(OC(F)(F)F)cc2)ccc1OCC(=O)O [Example 4, {2-Methyl-4-[5-(4-trifluoromethoxy-phenyl)-pent-4-ynylsulfanyl]-phenoxy}-acetic acid] | 94 to 95 °C | > 10 | 0.014 | 0.039
3 | Cc1cc(SCC#Cc2ccccc2)ccc1OCC(=O)O [Example 10, [2-Methyl-4-(3-phenyl-prop-2-ynylsulfanyl)-phenoxy]-acetic acid] | 90 to 92 °C |  |  | 
4 | Cc1cc(SCC#Cc2ccccc2C(F)(F)F)ccc1OCC(=O)O [Example 7, {2-Methyl-4-[3-(2-trifluoromethyl-phenyl)-prop-2-ynylsulfanyl]-phenoxy}-acetic acid] | 95 to 97 °C |  |  | 
5 | Cc1cc(OCCC#Cc2ccc(Cl)cc2)ccc1OC(C)(C)C(=O)O [Example 18, 2-{4-[4-(4-Chloro-phenyl)-but-3-ynyloxy]-2-methyl-phenoxy}-2-methyl-propionic acid] | 68 to 69 °C (dec.) |  |  | 
6 | Cc1cc(SCC#Cc2ccc(C(F)(F)F)cc2)ccc1OCC(=O)O [Example 5, {2-Methyl-4-[3-(4-trifluoromethyl-phenyl)-prop-2-ynylsulfanyl]-phenoxy}-acetic acid] | 130 to 131 °C |  |  | 
7 | Cc1cc(OCCCC#Cc2ccc(Cl)cc2)ccc1OC(C)(C)C(=O)O [Example 15, 2-{4-[5-(4-Chloro-phenyl)-pent-4-ynyloxy]-2-methyl-phenoxy}-2-methyl-propionic acid] | 119 to 120 °C (dec.) |  |  | 
8 | Cc1cc(OCCCC#Cc2cnc(C(F)(F)F)nc2)ccc1OC(C)(C)C(=O)O [Example 28, 2-Methyl-2-{2-methyl-4-[5-(2-trifluoromethyl-pyrimidin-5-yl)-pent-4-ynyloxy]-phenoxy}-propionic acid] | 95 to 97 °C (dec.) |  |  | 
9 | Cc1cc(SCC#Cc2ccc(Cl)cc2)ccc1OCC(=O)O [Example 8, {4-[3-(4-Chloro-phenyl)-prop-2-ynylsulfanyl]-2-methyl-phenoxy}-acetic acid] | 106 to 108 °C |  |  | 
10 | Cc1cc(OCCC#Cc2ccc(OC(F)(F)F)cc2)ccc1OC(C)(C)C(=O)O [Example 17, 2-Methyl-2-{2-methyl-4-[4-(4-trifluoromethoxy-phenyl)-but-3-ynyloxy]-phenoxy}-propionic acid] | 62 to 71 °C (dec.) | > 10 | 0.018 | 0.203
11 | Cc1cc(OCCCC#Cc2ccc(OC(F)(F)F)cc2)ccc1OCC(=O)O [Example 20, {2-Methyl-4-[5-(4-trifluoromethoxy-phenyl)-pent-4-ynyloxy]-phenoxy}-acetic acid] | 124.6 to 126.7 °C |  |  | 
12 | CC(C)(Oc1ccc(CNC(=O)CCC#Cc2ccc(OC(F)(F)F)cc2)cc1)C(=O)O [Example 29, 2-Methyl-2-(4-{[5-(4-trifluoromethoxy-phenyl)-pent-4-ynoylamino]-methyl}-phenoxy)-propionic acid] | 127 to 128 °C (dec.) |  |  | 
13 | COc1ccc(C#CCSc2ccc(OCC(=O)O)c(C)c2)cc1 [Example 9, {4-[3-(4-Methoxy-phenyl)-prop-2-ynylsulfanyl]-2-methyl-phenoxy}-acetic acid] | 143 to 144 °C |  |  | 
14 | Cc1cc(SCCC#Cc2ccc(C(F)(F)F)cc2)ccc1OCC(=O)O [Example 12, {2-Methyl-4-[4-(4-trifluoromethyl-phenyl)-but-3-ynylsulfanyl]-phenoxy}-acetic acid] | 129 to 130 °C |  |  | 
15 | Cc1cc(OCCCC#Cc2ccc(OC(F)(F)F)cc2)ccc1OC(C)(C)C(=O)O [Example 13, 2-Methyl-2-{2-methyl-4-[5-(4-trifluoromethoxy-phenyl)-pent-4-ynyloxy]-phenoxy}-propionic acid] | 90 to 91 °C (dec.) | > 10 | 0.021 | 0.12
16 | Cc1cc(SCC#Cc2cccc(C(F)(F)F)c2)ccc1OCC(=O)O [Example 6, {2-Methyl-4-[3-(3-trifluoromethyl-phenyl)-prop-2-ynylsulfanyl]-phenoxy}-acetic acid] | 81 to 82 °C |  |  | 
17 | CC(C)(Oc1ccc(OCCCC#Cc2ccc(OC(F)(F)F)cc2)c(F)c1)C(=O)O [Example 32, 2-{3-Fluoro-4-[5-(4-trifluoromethoxy-phenyl)-pent-4-ynyloxy]-phenoxy}-2-methyl-propionic acid] | 65.5 to 68.5 °C |  |  | 
18 | Cc1c(OC(C)(C)C(=O)O)ccc(OCCCC#Cc2ccc(OC(F)(F)F)cc2)c1F [Example 33, 2-{3-Fluoro-2-methyl-4-[5-(4-trifluoromethoxy-phenyl)-pent-4-ynyloxy]-phenoxy}-2-methyl-propionic acid] | 116 to 118 °C |  |  | 
19 | Cc1cc(OCCCC#Cc2ccc(Cl)c(F)c2)ccc1OC(C)(C)C(=O)O [Example 27, 2-{4-[5-(4-Chloro-3-fluoro-phenyl)-pent-4-ynyloxy]-2-methyl-phenoxy}-2-methyl-propionic acid] | 106 to 107 °C (dec.) |  |  | 
